Values of other authors as cited in patent publication US8449914B2, “Controlled release carvedilol compositions” (Egalet Ltd., priority 2002, dated 2013).
Read-outs that look alike come from different tables or passages of the source. One block for each compound: values may come before it.

How the values were obtained:
[1] = system: beta-adrenoreceptor; details: humans
[2] = system: alpha1-adrenoreceptor; details: IR formulation
[3] = not given; remark: listed apart in the source
[4] = system: beta-adrenoreceptor; details: preclinical studies

solubility (95% ethanol): sparingly soluble
solubility (dimethylsulfoxide): freely soluble
solubility (ethyl ether): slightly soluble
solubility (gastric fluid (simulated, TS, pH1.1)): practically insoluble
solubility (intestinal fluid (simulated, TS without pancreatin, pH 7.5)): practically insoluble
solubility (isopropanol): sparingly soluble
solubility (methanol): soluble
solubility (methylene chloride): soluble
solubility (water): practically insoluble
time after administration at which beta-blocking actions are evident [1]: one
time after administration at which alpha-mediated vasodilatory effects are evident [2]: ≤ 30 min
steady-state volume of distribution ([3]; in vivo): approximately 115 L
absorption in the large intestine, share of the total absorption ([3]; timed-release capsules, study by Nolte et al): approximately 10%
SMILES: COc1ccccc1OCCNCC(O)COc1cccc2[nH]c3ccccc3c12 (racemic) [Carvedilol]

potency for beta-blockade relative to carvedilol [4]: approximately 13 times
SMILES: COc1cc(O)ccc1OCCNCC(O)COc1cccc2[nH]c3ccccc3c12 (centres unmarked) [4′-hydroxyphenyl metabolite, 4′-hydroxy carvedilol]

mean apparent terminal elimination half-lives ([3]; in vivo): 5 to 9 h
plasma concentrations in poor metabolizers of debrisoquin compared to extensive metabolizers ([3]; in vivo): 2-3 fold
SMILES: COc1ccccc1OCCNC[C@@H](O)COc1cccc2[nH]c3ccccc3c12 [R(+)-carvedilol]

mean apparent terminal elimination half-lives ([3]; in vivo): 7 to 11 h
SMILES: COc1ccccc1OCCNC[C@H](O)COc1cccc2[nH]c3ccccc3c12 [S(−)-carvedilol]
